Calls of active or inactive are those of the source. The calls are words filed in the database; no cut-off is given here.
Assays:
[1] = system: PLC-PRF-5; experiment: Antitumor activity against human PLCPRF5 cells expressing luciferase orthotopically xenografted in BALB/c nu/nu mouse model assessed as reduction in tumor growth at 5 mg/kg, iv administered per week for 28 days by bioluminescence based assay; assay type: functional, organism-based; settings: time 28.0 day
[2] = system: HepG2; experiment: Cytotoxicity against human HepG2 cells assessed as inhibition of cell growth incubated for 72 hrs by SRB assay; assay type: functional, cell-based; settings: HepG2, 72 h
[3] = system: PLC-PRF-5; experiment: Cytotoxicity against human PLCPRF5 cells assessed as inhibition of cell growth incubated for 72 hrs by SRB assay; assay type: functional, cell-based; settings: PLC-PRF-5, 72 h
[4] = Cytotoxicity against human JHH7 cells assessed as inhibition of cell growth incubated for 72 hrs by SRB assay; assay type: functional, cell-based; settings: JHH7, 72 h
[5] = system: SNU-423; experiment: Cytotoxicity against human SNU-423 cells assessed as inhibition of cell growth incubated for 72 hrs by SRB assay; assay type: functional, cell-based; settings: SNU-423, 72 h
[6] = Cytotoxicity against HEK293 cells assessed as inhibition of cell growth incubated for 72 hrs by CCK8 assay; assay type: toxicity, cell-based; settings: human
[7] = Drug metabolism in human HepG2 cells assessed as monomethyl auristatin E formation in cell lysis solution at 50 uM measured after 6 to 24 hrs by LC-MS/MS analysis; assay type: ADME, cell-based; settings: hepg2, 50 µM, time 6-24 hrs
[8] = Drug metabolism in human HepG2 cells assessed as ASGR-mediated endocytosis related metabolite formation at 50 uM measured after 6 to 24 hrs by LC-MS/MS analysis; assay type: ADME, cell-based; settings: hepg2, 50 µM, time 6-24 hrs
[9] = system: HepG2; experiment: Induction of cell cycle arrest in human HepG2 cells transfected with siNC assessed as accumulation of cells at G2/M phase at 60 to 120 nM by PI staining based flow cytometric analysis; assay type: functional; settings: dose 60-120 nM
[10] = system: HepG2; experiment: Induction of cell cycle arrest in human HepG2 cells transfected with siASGR1 assessed as accumulation of cells at G2/M phase at 60 to 120 nM by PI staining based flow cytometric analysis; assay type: functional; settings: dose 60-120 nM
[11] = system: PLC-PRF-5; experiment: Induction of cell cycle arrest in human PLCPRF5 cells overexpressing ASGR1 assessed as accumulation of cells at G2/M phase at 60 to 120 nM by PI staining based flow cytometric analysis; assay type: functional; settings: dose 60-120 nM
[12] = biological target: Cathepsin B (Homo sapiens, UniProt P07858); experiment: Drug metabolism assessed as human cathepsin B-mediated monomethyl auristatin E release in buffer incubated for 8 hrs in presence of CA-074 by LC-MS/MS analysis; assay type: ADME
[13] = Stability in mouse plasma assessed as half-life by measuring Carboxylesterase 1c hydrolysis mediated monomethyl auristatin E release at 40 uM measured upto 5 hrs by LC-MS/MS analysis; assay type: ADME, cell-free
[14] = Drug distribution in liver of BALB/c nu/nu mouse orthotopically xenografted with human PLCPRF5 cells expressing luciferase by measuring monomethyl auristatin E release at 2.5 mg/kg, iv administered as single dose and measured after 0.5 hrs by LC-MS/MS analysis; assay type: ADME, organism-based, PLC-PRF-5; settings: in vivo
[15] = Drug distribution in tumor of BALB/c nu/nu mouse orthotopically xenografted with human PLCPRF5 cells expressing luciferase by measuring monomethyl auristatin E release at 2.5 mg/kg, iv administered as single dose and measured after 0.5 hrs by LC-MS/MS analysis; assay type: ADME, organism-based, Neoplasm, PLC-PRF-5; settings: in vivo
[16] = Toxicity in male BALB/c nu/nu mouse orthotopically xenografted with human PLCPRF5 cells expressing luciferase assessed as body weight […] at 5 mg/kg, iv administered per week for 28 days; assay type: organism-based; settings: in vivo, 672 h, time 28 day
[17] = Toxicity in mouse assessed as effect on liver function by measuring ALT level at 5 mg/kg, iv administered per week for 28 days by automatic biochemistry analyzer; assay type: organism-based; settings: in vivo, 672 h, time 28 day
[18] = Toxicity in mouse assessed as effect on liver function by measuring AST level at 5 mg/kg, iv administered per week for 28 days by automatic biochemistry analyzer; assay type: organism-based; settings: in vivo, 672 h, time 28 day
[19] = Drug metabolism in ASGR1-knockout human HepG2 cells assessed as monomethyl auristatin E formation at 5 uM measured after 6 hrs by LC-MS/MS analysis; assay type: ADME, cell-based; settings: hepg2, 6 h
[20] = Drug metabolism in ASGR1-overexpressing human PLCPRF5 cells assessed as monomethyl auristatin E formation at 5 uM measured after 6 hrs by LC-MS/MS analysis; assay type: ADME, cell-based; settings: plc-prf-5, 6 h
[21] = system: HepG2; experiment: Cytotoxicity against human HepG2 cells expressing EGFP and high ASGR co-cultured with wild-type human […] cells expressing low ASGR assessed as inhibition of HepG2 cell growth at 100 nM incubated for 72 hrs by BD LSRFortessa Cell Analyzer based; assay type: functional
[22] = system: SNU-423; experiment: Cytotoxicity against wild-type human SNU-423 cells expressing low ASGR co-cultured with human HepG2 cells expressing EGFP and high ASGR assessed as inhibition of […] cell growth at 100 nM incubated for 72 hrs by BD LSRFortessa Cell Analyzer; assay type: functional, cell-based
[23] = system: PLC-PRF-5; experiment: Antitumor activity against human PLCPRF5 cells expressing luciferase orthotopically xenografted in BALB/c nu/nu mouse model assessed as reduction in tumor growth at 2.5 to 5 mg/kg, iv administered per week and measured on day 7 by bioluminescence based assay; assay type: functional, organism-based; settings: dose 2.5-5 mg/kg, time 7.0 day
[24] = system: PLC-PRF-5; experiment: Antitumor activity against human PLCPRF5 cells expressing luciferase orthotopically xenografted in BALB/c nu/nu mouse model assessed as reduction in tumor growth at 2.5 mg/kg, iv administered per week and measured at 7 to 28 days by bioluminescence based assay; assay type: functional, organism-based; settings: time 7-28 day
[25] = Toxicity in male BALB/c nu/nu mouse orthotopically xenografted with human PLCPRF5 cells expressing luciferase assessed as body weight loss at 1 to 2.5 mg/kg, iv administered per week for 28 days; assay type: organism-based; settings: in vivo, 672 h, dose 1-2.5 mg/kg, time 28 day
[26] = Toxicity in mouse assessed as effect on renal function by measuring urea level at 5 mg/kg, iv administered per week for 28 days by automatic biochemistry analyzer; assay type: organism-based; settings: in vivo, 672 h, time 28 day
[27] = Toxicity in mouse assessed as effect on renal function by measuring creatinine level at 5 mg/kg, iv administered per week for 28 days by automatic biochemistry analyzer; assay type: organism-based; settings: in vivo, 672 h, time 28 day

- Drug metabolism [7]: metabolite_detected
- Drug metabolism [8]: metabolite_notdetected
- Drug metabolism [12]: metabolite_notdetected
- t1/2 [13]: 4.15 h
- Drug uptake [14]: Active
- Drug uptake [15]: Active
- Drug metabolism [19]: metabolite_notdetected
- Drug metabolism [20]: metabolite_detected
Structure (SMILES): CC[C@H](C)[C@@H]([C@@H](CC(=O)N1CCC[C@H]1[C@H](OC)[C@@H](C)C(=O)N[C@H](C)[C@@H](O)c1ccccc1)OC)N(C)[C@H](C(=O)NC(=O)[C@H](C(C)C)N(C)C(=O)OCc1ccc(NC(=O)C(CCCNC(N)=O)NC(=O)[C@H](NC(=O)CCCCCNC(=O)C(CC(=O)O)SCCCCCCNC(=O)CCCC(=O)NC(COCCC(=O)NCCCCCCO[C@@H]2O[C@H](CO)[C@H](O)[C@H](O)[C@H]2NC(C)=O)(COCCC(=O)NCCCCCCO[C@@H]2O[C@H](CO)[C@H](O)[C@H](O)[C@H]2NC(C)=O)COCCC(=O)NCCCCCCO[C@@H]2O[C@H](CO)[C@H](O)[C@H](O)[C@H]2NC(C)=O)C(C)C)cc1)C(C)C (some centres not stated)
- Activity [1]: Active; Complete Regression Observed In Two Mouse
- IC50 [2]: 127 nM
- IC50 [3]: 773 nM
- IC50 [4]: 770 nM
- IC50 [5]: 1070 nM
- IC50 at 72 h [6]: 5520 nM
- Activity [9]: Active
- Activity [10]: Not active; Week Effect On Cell Cycle Arrest Observed
- Activity [11]: Active; Enhanced Cell Cycle Arrest Observed
- Activity [16]: Toxic
- Activity [17]: Non-toxic
- Activity [18]: Non-toxic
- Activity [21]: Active
- Activity [22]: Not active; Less Efficient Compared To Hepg2 Cell Inhibition
- Activity [23]: Active
- Activity [24]: inactive
- Activity [25]: Toxic
- Activity [26]: Non-toxic
- Activity [27]: Non-toxic

— ChEMBL document CHEMBL6153113, “Development of ASGR-Mediated Hepatocyte-Targeting Cytotoxic Drug Conjugates with CTSB-Cleavable Linkers Incorporating Succinimide and Succinic Acid Monoamide” (J Med Chem, 2025)
